Where two headings read alike, the source gives them in different places.
Assays:
[1] = molecular target: human JAK1 (a.a. 837-1142) (Homo sapiens, UniProt P23458); experiment: In vitro JAK kinase assay (HTRF, phosphorylation of biotinylated peptide), JAK1; format: biochemical
Method in brief: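 His-tagged human JAK1 catalytic domain (a.a. 837-1142), baculovirus/insect-cell expressed, phosphorylates a biotinylated peptide for 1 h at room temperature. Reaction stopped with EDTA; product detected by HTRF (SA-APC, Eu-Py20, 40 min binding). IC50 reported as ranges.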

JAK2 (a.a. 828-1132) = molecular target: T1, JAK2 (a.a. 828-1132) (Homo sapiens, UniProt O60674); experiment: In vitro JAK kinase assay (HTRF, phosphorylation of biotinylated peptide), JAK2; format: biochemical
T1 construct: JAK2 (a.a. 828-1132); His tag (N)
Method in brief: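 His-tagged catalytic domains of human JAK1 (a.a. 837-1142) and JAK2 (a.a. 828-1132), baculovirus-expressed, phosphorylate a biotinylated peptide for 1 hour at room temperature. Stopped with EDTA; detected by HTRF using SA-APC and Eu-Py20 antibody after 40 min binding; values binned as ranges.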

T1 sequence (O60674 828-1132): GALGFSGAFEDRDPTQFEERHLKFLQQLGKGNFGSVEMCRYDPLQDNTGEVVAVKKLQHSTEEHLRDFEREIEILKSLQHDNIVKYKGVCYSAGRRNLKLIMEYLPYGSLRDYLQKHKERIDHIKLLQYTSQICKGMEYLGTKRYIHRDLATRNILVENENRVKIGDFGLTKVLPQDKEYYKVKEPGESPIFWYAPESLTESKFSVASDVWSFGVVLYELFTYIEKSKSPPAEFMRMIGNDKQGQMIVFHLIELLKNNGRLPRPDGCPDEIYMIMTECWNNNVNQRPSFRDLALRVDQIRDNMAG
Chain of human JAK1 (a.a. 837-1142) (P23458 849-1154): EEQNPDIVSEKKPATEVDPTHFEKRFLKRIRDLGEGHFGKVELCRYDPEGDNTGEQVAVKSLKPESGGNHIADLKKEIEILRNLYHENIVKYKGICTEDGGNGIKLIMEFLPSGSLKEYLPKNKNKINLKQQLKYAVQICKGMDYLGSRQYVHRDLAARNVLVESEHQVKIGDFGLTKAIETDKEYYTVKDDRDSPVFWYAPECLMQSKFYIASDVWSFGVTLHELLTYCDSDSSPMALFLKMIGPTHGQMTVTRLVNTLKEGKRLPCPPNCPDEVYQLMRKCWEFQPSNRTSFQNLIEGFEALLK

IC50 ([1]; Table F, 1 mM ATP) [nM] | IC50 (JAK2 (a.a. 828-1132); Table F, 1 mM ATP) [nM] | Molecule | IC50 ([1]; read-out: JAK1 IC50 (nM) at 1 mM ATP, Table F) [nM] | IC50 (JAK2 (a.a. 828-1132); read-out: JAK2 IC50 (nM) at 1 mM ATP, Table F) [nM]
25 to 100 | > 100 | N#CC[C@]1(n2cc(-c3ncnc4[nH]ccc34)cn2)C[C@H](N2CCC(Oc3cc(CN4CCOCC4)nc(C(F)(F)F)n3)CC2)C1 [Example 149, {trans-3-(4-{[6-(morpholin-4-ylmethyl)-2-(trifluoromethyl)pyrimidin-4-yl]oxy}piperidin-1-yl)-1-[4-(7H-pyrrolo[2,3-d]pyrimidin-4-yl)-1H-pyrazol-1-yl]cyclobutyl}acetonitrile] |  | 
10 to 25 | > 100 | N#CC[C@]1(n2cc(-c3ncnc4[nH]ccc34)cn2)C[C@H](N2CCC(Oc3cc(CN4CCC4)nc(C(F)(F)F)n3)CC2)C1 [Example 150, {cis-3-(4-{[6-(azetidin-1-ylmethyl)-2-(trifluoromethyl)pyrimidin-4-yl]oxy}piperidin-1-yl)-1-[4-(7H-pyrrolo[2,3-d]pyrimidin-4-yl)-1H-pyrazol-1-yl]cyclobutyl}acetonitrile] |  | 
< 10 | 25 to 100 | Cc1cc(OC2CCN([C@H]3C[C@@](CC#N)(n4cc(-c5ncnc6[nH]ccc56)cn4)C3)CC2)nc(C(F)(F)F)c1 [Example 151, {trans-3-(4-{[4-methyl-6-(trifluoromethyl)pyridin-2-yl]oxy}piperidin-1-yl)-1-[4-(7H-pyrrolo[2,3-d]pyrimidin-4-yl)-1H-pyrazol-1-yl]cyclobutyl}acetonitrile] |  | 
< 10 | > 100 | N#CC[C@]1(n2cc(-c3ncnc4[nH]ccc34)cn2)C[C@H](N2CCN(C(=O)NC(C(F)(F)F)C(F)(F)F)CC2)C1 [Example 152, 4-{trans-3-(Cyanomethyl)-3-[4-(7H-pyrrolo[2,3-d]pyrimidin-4-yl)-1H-pyrazol-1-yl]cyclobutyl}-N-[2,2,2-trifluoro-1-(trifluoromethyl)ethyl]piperazine-1-carboxamide] |  | 
< 10 | 25 to 100 | CC(C)(CO)NCc1cc(OC2CCN([C@H]3C[C@](CC#N)(n4cc(-c5ncnc6[nH]ccc56)cn4)C3)CC2)nc(C(F)(F)F)c1 [Example 153, {trans-3-(4-{[4-{[(2-hydroxy-1,1-dimethylethyl)amino]methyl}-6-(trifluoromethyl)pyridin-2-yl]oxy}piperidin-1-yl)-1-[4-(7H-pyrrolo[2,3-d]pyrimidin-4-yl)-1H-pyrazol-1-yl]cyclobutyl}acetonitrile] |  | 
< 10 | 25 to 100 | N#CC[C@]1(n2cc(-c3ncnc4[nH]ccc34)cn2)C[C@H](N2CCC(Oc3cc(CNCCO)cc(C(F)(F)F)n3)CC2)C1 [Example 154, {trans-3-(4-{[4-{[(2-hydroxyethyl)amino]methyl}-6-(trifluoromethyl)pyridin-2-yl]oxy}piperidin-1-yl)-1-[4-(7H-pyrrolo[2,3-d]pyrimidin-4-yl)-1H-pyrazol-1-yl]cyclobutyl}acetonitrile] |  | 
< 10 | 25 to 100 | N#CC[C@]1(n2cc(-c3ncnc4[nH]ccc34)cn2)C[C@H](N2CCC(Oc3cc(CNCCCO)cc(C(F)(F)F)n3)CC2)C1 [Example 155, {trans-3-(4-{[4-{[(3-hydroxypropyl)amino]methyl}-6-(trifluoromethyl)pyridin-2-yl]oxy}piperidin-1-yl)-1-[4-(7H-pyrrolo[2,3-d]pyrimidin-4-yl)-1H-pyrazol-1-yl]cyclobutyl}acetonitrile] |  | 
< 10 | 25 to 100 | N#CC[C@]1(n2cc(-c3ncnc4[nH]ccc34)cn2)C[C@H](N2CCC(Oc3cc(CN4CCC4)cc(C(F)(F)F)n3)CC2)C1 [Example 156, {trans-3-(4-{[4-(azetidin-1-ylmethyl)-6-(trifluoromethyl)pyridin-2-yl]oxy}piperidin-1-yl)-1-[4-(7H-pyrrolo[2,3-d]pyrimidin-4-yl)-1H-pyrazol-1-yl]cyclobutyl}acetonitrile] |  | 
< 10 | 25 to 100 | N#CC[C@]1(n2cc(-c3ncnc4[nH]ccc34)cn2)C[C@H](N2CCC(Oc3cc(CN4CC(O)C4)cc(C(F)(F)F)n3)CC2)C1 [Example 157, {trans-3-(4-{[4-[(3-hydroxyazetidin-1-yl)methyl]-6-(trifluoromethyl)pyridin-2-yl]oxy}piperidin-1-yl)-1-[4-(7H-pyrrolo[2,3-d]pyrimidin-4-yl)-1H-pyrazol-1-yl]cyclobutyl}acetonitrile] |  | 
< 10 | 25 to 100 | N#CC[C@]1(n2cc(-c3ncnc4[nH]ccc34)cn2)C[C@H](N2CCC(Oc3cc(CN4CCCC4)cc(C(F)(F)F)n3)CC2)C1 [Example 158, {trans-3-(4-{[4-(pyrrolidin-1-ylmethyl)-6-(trifluoromethyl)pyridin-2-yl]oxy}piperidin-1-yl)-1-[4-(7H-pyrrolo[2,3-d]pyrimidin-4-yl)-1H-pyrazol-1-yl]cyclobutyl}acetonitrile] |  | 
< 10 | 25 to 100 | N#CC[C@]1(n2cc(-c3ncnc4[nH]ccc34)cn2)C[C@H](N2CCC(Oc3cc(CN4CCOCC4)cc(C(F)(F)F)n3)CC2)C1 [Example 159, {trans-3-(4-{[4-(morpholin-4-ylmethyl)-6-(trifluoromethyl)pyridin-2-yl]oxy}piperidin-1-yl)-1-[4-(7H-pyrrolo[2,3-d]pyrimidin-4-yl)-1H-pyrazol-1-yl]cyclobutyl}acetonitrile] |  | 
10 to 25 | > 100 | N#CC[C@]1(n2cc(-c3ncnc4[nH]ccc34)cn2)C[C@H](N2CCC(Oc3cc(CN4CCC(F)(F)C4)cc(C(F)(F)F)n3)CC2)C1 [Example 160, {trans-3-(4-{[4-[(3,3-difluoropyrrolidin-1-yl)methyl]-6-(trifluoromethyl)pyridin-2-yl]oxy}piperidin-1-yl)-1-[4-(7H-pyrrolo[2,3-d]pyrimidin-4-yl)-1H-pyrazol-1-yl]cyclobutyl}acetonitrile] |  | 
< 10 | 25 to 100 | N#CC[C@]1(n2cc(-c3ncnc4[nH]ccc34)cn2)C[C@H](N2CCC(Oc3cc(CN4CCC[C@H]4CO)cc(C(F)(F)F)n3)CC2)C1 [Example 161, {trans-3-(4-{[4-{[(2S)-2-(hydroxymethyl)pyrrolidin-1-yl]methyl}-6-(trifluoromethyl)pyridin-2-yl]oxy}piperidin-1-yl)-1-[4-(7H-pyrrolo[2,3-d]pyrimidin-4-yl)-1H-pyrazol-1-yl]cyclobutyl}acetonitrile] |  | 
< 10 | > 100 | N#CC[C@]1(n2cc(-c3ncnc4[nH]ccc34)cn2)C[C@H](N2CCC(Oc3cc(CN4CCC[C@@H]4CO)cc(C(F)(F)F)n3)CC2)C1 [Example 162, {trans-3-(4-{[4-{[(2R)-2-(hydroxymethyl)pyrrolidin-1-yl]methyl}-6-(trifluoromethyl)pyridin-2-yl]oxy}piperidin-1-yl)-1-[4-(7H-pyrrolo[2,3-d]pyrimidin-4-yl)-1H-pyrazol-1-yl]cyclobutyl}acetonitrile] |  | 
< 10 | 25 to 100 | CC(C)(O)c1cc(C(=O)N2CCN([C@H]3C[C@](CC#N)(n4cc(-c5ccnc6[nH]ccc56)cn4)C3)CC2)nc(C(F)(F)F)c1 [Example 163, {trans-3-(4-{[4-(1-hydroxy-1-methylethyl)-6-(trifluoromethyl)pyridin-2-yl]carbonyl}piperazin-1-yl)-1-[4-(1H-pyrrolo[2,3-b]pyridin-4-yl)-1H-pyrazol-1-yl]cyclobutyl}acetonitrile] |  | 
 |  | {cis-3-(4-{[6-(1-hydroxy-1-methylethyl)-2-(trifluoromethyl)pyrimidin-4-yl]carbonyl}piperazin-1-yl)-1-[4-(1H-pyrrolo[2,3-b]pyridin-4-yl)-1H-pyrazol-1-yl]cyclobutyl}acetonitrile [Example 77] | < 10 | 25 to 100
